Patent US8097585B2, “Methods of treating inflammation by administration of heme oxygenase-1 and products of heme degradation” (priority 2002, dated 2012)
Structures can show the parent of a compound that is named as a salt.

Tests used:
[1] = set-up: species or system LEW rats; conditions: rat, in vivo, ip
Experimental: Serum bilirubin levels and BVR expression in the graft. To assess how fast injected biliverdin (BV) is metabolized into bilirubin, sequential serum bilirubin levels were analyzed. Before BV treatment, serum bilirubin levels were undetectable. Thirty minutes after BV injection i.p., serum bilirubin levels reached a peak of 1.07±0.5 mg/dl compared to those of normal animals. By 2 hours after injection i.p., bilirubin levels returned to normal.

ICAM-1 = test: Real time RT-PCR of graft muscularis after SITx, ICAM-1; assay type: in vivo, LEW rats; conditions: BV treatment
Experimental: Small Intestinal Transplantation. Orthotopic small intestinal transplantation (SITx) was performed in syngeneic Lewis rats. SITx with caval drainage was performed using a previously described procedure (Murase et al., in Handbook of Animal Models in Transplantation Research, Cramer et al., Eds. CRC Press, Boca Raton, Fla., pp. 203-213 (1994)). […] The graft was perfused via the aortic segment with 5 ml chilled Ringer's lactate solution, and the intestinal lumen was irrigated with 20 ml of cold saline solution containing 0.5% neomycin-sulfate (Sigma, St. Louis, Mo.). […]
SYBR green real time RT-PCR. The effects of administration of biliverdin on transplant-induced pro-inflammatory and anti-inflammatory gene expression were assessed in muscularis extracts by RT-PCR Biliverdin ([…], i.p.) was administered to both the donor and recipient three hours preoperatively. […] Equal aliquots (5 μg) of total RNA from each sample were quantified by spectrophotometry (wavelength […]) and aliquoted at a concentration of 40 ng/μl. Peak mRNA expression was quantified in duplicate by SYBR Green two-step, real-time RT-PCR. […] Real-time PCR data were plotted as the ΔRn fluorescence signal versus the cycle number. […] Quantification of mRNA expression was normalized to GAPDH and calculated relative to control using the comparative CT method (Schmittgen et al., J. Biochem. Biophys. Methods 46(1-2):69-8, 2000). […]

[2] = Total antioxidant capacity of graft, SITx with 6 hours preservation; assay type: in vivo, LEW rats
Source text: Antioxidant capacity after BV treatment. the total antioxidant capacity or antioxidant power within the graft specimens was quantitatively measured. Antioxidant levels in the graft were detected using Total Antioxidant Power® (Oxford Biomedical Research, Oxford, Mich.), according to the manufacturer's instructions. In this procedure, the evaluation of the antioxidant level in a sample is detected by evaluation of Cu^+ derived from Cu^++ by the combined action of all antioxidants present in the sample.

fulminant hepatitis = test: TNF-α/D-Galactosamine hepatitis model, serum ALT; assay type: in vivo, mice (C57BL/6J)
Experimental: Male mice (C57BL/6J) were administered biliverdin ([…], i.p.) 16 hours and 1 hour prior to i.p. injection of a cocktail including 0.3 ug/mouse TNF-α (mouse TNF-α; Gibco) and 250 mg/kg, i.p. D-Galactosamine (Sigma), which induces fulminant hepatitis within 6-10 hours. Control mice received PBS vehicle. Serum samples were taken via cardiac puncture 6-8 hours later and analyzed for alanine aminotransferase (ALT) per an ALT assay kit from Sigma Chem. Co. following the manufacturer's directions.

IL-6 = test: Serum IL-6 (ELISA), SITx with preserved intestine; assay type: in vivo, LEW rats
Experimental: Detection of Serum Mediators. Serum samples from the recipients transplanted with preserved intestine were taken at 3 and 12 hours after reperfusion and stored at […] until evaluation. Serum IL-6 was determined using a rat enzyme-linked immunoassay (ELISA) kits as described by the manufacturer (R & D Systems, Inc., Cambridge, Mass.). To monitor the production of nitric oxide, the stable end products of NO metabolism, serum nitrite/nitrate levels, were measured 12 hours after engraftment using a commercially available test kit (Cayman, Ann Arbor, Mich.). In this assay system, nitrate is reduced to nitrite using nitrate reductase, and the nitrite concentration of the sample is subsequently measured using the Griess reaction.

C=CC1=C(C)/C(=C/C2=NC(=C\c3[nH]c(/C=C4\NC(=O)C(C)=C4C=C)c(C)c3CCC(=O)O)/C(CCC(=O)O)=C2C)NC1=O [biliverdin, biliverdin dihydrochloride]
peak serum bilirubin level ([1]; LEW): 1.07 ± 0.5 mg/dL
time for bilirubin levels to return to normal ([1]; LEW): ≤ 2 h
time to peak serum bilirubin [1]: Thirty
reduction of ICAM-1 expression in the graft (ICAM-1): up to 30%
antioxidant capacity of the transplanted intestine [2]: increased the antioxidant capacity of the transplanted intestine to normal levels
serum ALT (fulminant hepatitis; 6-8 hours after TNF-α/D-Galactosamine, control about 1000, normal 20-30): ~100 IU/ml
reduction of serum ALT levels compared to vehicle treated controls (fulminant hepatitis; biliverdin 50 mmol/kg i.p. 16 hours and 1 hour prior to TNF-α/D-Galactosamine): more than 90%
serum IL-6 protein concentration (IL-6; 3 hours after engraftment, untreated transplant 5131.4±3169.1): 1652 ± 306.9 pg/mL
serum IL-6 concentrations (IL-6; BV treated controls (no transplant)): low
